{
  "source": "patent US20190151312A1",
  "about": "“HEPARAN SULFATE BIOSYNTHESIS INHIBITORS FOR THE TREATMENT OF DISEASES” (BioMarin Pharmaceutical Inc., priority 2014, published 2019)",
  "data": [
    {"test_system": "GM01896 cells (MPS II dermal fibroblasts)", "assay": "Assay 1: MPS cellular assay, MPS II (heparan sulfate disaccharide biomarkers by LC-MS)", "type": "cell-based, human", "conditions": "Assay 1 for MPS II, heparan sulfate disaccharide biomarkers (I2a4, I2a6, I2S0 and/or I2S6), read-out: IC50 Range", "protocol": "(§1) Dermal fibroblasts from humans with an MPS disorder and from healthy donors are grown. Cells are expanded and kept in culture for analysis. Human foreskin fibroblasts can be obtained from the American Type Culture Collection (CRL-1634). Human dermal fibroblasts derived from biopsies of individuals are purchased from Coriell Institute: clinically healthy individuals, GM00408, GM00409, GM00200 (clinically unaffected sibling of an individual with metachromatic leukodystrophy), GM05659, GM08398, and GM15871 (clinically unaffected sibling of an individual with unclassified Ehlers-Danlos syndrome); heterozygous MPS I carriers, GM01392, GM01393 and GM0003; homozygous individuals affected with MPS I, GM06214, GM11495, GM00034, GM01391 and GM01256; individuals with MPS II, GM01896, GM03181, GM00615 and GM00298; individuals with MPS IIIA, GM00879, GM00643, GM00934, GM06110 and GM00629; MPS IIIB, GM01426; MPS IIIC, GM05157; MPS IIID, GM05093; and MPS VII, GM00121. All cells are grown in DMEM containing 50 U ml-1 penicillin, […] ml-1 streptomycin, 2 mM glutamine and 10% FBS. Cells are seeded on 15-cm-diameter tissue culture dishes, grown to confluence and maintained in culture for analysis. Sulfamidase activity in cell extracts is measured with 4-methylumbelliferyl-α-D-N-sulfoglucosaminide according the vendors instructions substituting Tris-acetate buffer (pH 6.5; Moscerdam).\n(§2) Cells are treated with a compound of the invention at a concentration at or below 30 μM for 4 to 21 days. Cell monolayers are washed with phosphate buffered saline and detached by treatment with GIBCO trypsin-EDTA solution (Invitrogen). After centrifugation, the supernatant is removed and the cells are lysed in 0.5 mL of 0.1 N sodium hydroxide. The amount of protein is determined by bicinchoninic acid (BCA assay, Thermo Scientific). GAGs are isolated by anion exchange chromatography and digested with glycosaminoglycan lyases (heparinases I, II, and III, IBEX).\n(§3) Enzymatically depolymerized GAG preparations are differentially mass labeled by reductive amination with [^12C6]aniline. Briefly, heparan sulfate disaccharides (1-10 pmol) are dried down in a centrifugal evaporator and reacted with [^12C6]aniline or [^13C6]aniline (15 μL, 165 μmol) and 15 μL of 1 M NaCNBH3 (Sigma-Aldrich) freshly prepared in dimethylsulfoxide/acetic acid (7:3, v/v) is added to each sample. Reactions are carried out at 37° C. for 16 h and then dried in a centrifugal evaporator. Unsubstituted amines are reacted with propionic anhydride (Sigma-Aldrich). Dried samples are reconstituted in 20 μL of 50% methanol, and 3 μL of propionic anhydride (Sigma-Aldrich, 23.3 μmol) is added. Reactions are carried out at ˜23° C. for 2 h. Acylated disaccharides are subsequently aniline tagged as described above. Each sample is mixed with commercially available standard unsaturated disaccharides (Seikagaku), standard N-sulfoglucosamine, glucosamine-6-sulfate, N-acetylgalactosamine-4-sulfate and N-acetylgalactosamine-6-sulfate (Sigma-Aldrich), and/or synthesized α-L-idopyranosyluronate-(1,4)-2-N-acetyl-2-deoxy-α/β-D-glucopyranoside (I0S0). All standards are tagged with [^13C6]aniline (Sigma-Aldrich). Samples are then analyzed by LC-MS using an LTQ Orbitrap Discovery electrospray ionization mass spectrometer (Thermo Scientific) equipped with quaternary HPLC pump (Finnigan Surveyor MS pump) and a reverse-phase capillary column as described in J. Biol. Chem. 2008, 283(48), 33674.\n(§4) MPS II: Assay 1, as described above, was used to determine activity for MPS II using GM01896 cells. […] Extracted ion chromatograms were obtained. Cell viability was monitored using alamar blue or ATP quantification. IC50's were calculated using curve fitting within the ChemInnovation CBIS database system.", "units": {"IC50": "nM"}, "values": [
      {"smiles": "Cc1nc2ccc(-c3cc(Nc4ccc(Cl)cc4)nc(N4CCOCC4)n3)cc2n1CCCN(C)C", "note": "[[3-(6-{6-[(4-chlorophenyl)amino]-2-morpholin-4-ylpyrimidin-4-yl}-2-methylbenzimidazolyl)propyl]dimethylamine]", "IC50": "500 to 1000"},
      {"smiles": "Cc1ccn(-c2ccc(Nc3cc(-c4ccc5c(C)nn(C)c5c4)nc(N4CCOCC4)n3)cc2)n1", "note": "[[6-(1,3-dimethyl(1H-indazol-6-yl))-2-morpholin-4-ylpyrimidin-4-yl][4-(3-methylpyrazolyl)phenyl]amine]", "IC50": "< 500"},
      {"smiles": "Cn1c(=O)n(C)c2cc(-c3cc(Nc4ccc(Cl)cc4)nc(N4CCOCC4)n3)ccc21", "note": "[5-{6-[(4-chlorophenyl)amino]-2-morpholin-4-ylpyrimidin-4-yl}-1,3-dimethyl-3-hydrobenzimidazol-2-one]", "IC50": "< 500"},
      {"smiles": "CN(C)CCn1cnc2cc(-c3cc(Nc4ccc(Cl)cc4)nc(N4CCOCC4)n3)ccc21", "note": "[[2-(5-{6-[(4-chlorophenyl)amino]-2-morpholin-4-ylpyrimidin-4-yl}benzimidazolyl)ethyl]dimethylamine]", "IC50": "1000 to 5000"}
    ]},
    {"test_system": "GM01896 cells (MPS II dermal fibroblasts)", "assay": "Assay 1: MPS cellular assay, MPS II (heparan sulfate disaccharide biomarkers by LC-MS)", "type": "cell-based, human", "conditions": "Homo sapiens, Fibroblast, Assay 1 for MPS II, heparan sulfate disaccharide biomarkers (I2a4, I2a6, I2S0 and/or I2S6), read-out: IC50 Range", "protocol": "as §1, §2, §3, §4", "units": {"IC50": "nM"}, "values": [
      {"smiles": "COCCn1ncc2ccc(-c3cc(Nc4ccc(Cl)cc4)nc(N4CCOCC4)n3)cc21", "note": "[(4-chlorophenyl){6-[1-(2-methoxyethyl)(1H-indazol-6-yl)]-2-morpholin-4-ylpyrimidin-4-yl}amine]", "IC50": "1000 to 5000"},
      {"smiles": "Cn1cnc2ccc(-c3cc(Nc4ccc(F)cc4)nc(N4CCOCC4)n3)cc21", "note": "[(4-fluorophenyl)[6-(1-methylbenzimidazol-6-yl)-2-morpholin-4-ylpyrimidin-4-yl]amine]", "IC50": "1000 to 5000"},
      {"smiles": "CNC(=O)c1ccc(Nc2cc(-c3ccc4ncn(CCCN5CCOCC5)c4c3)nc(N3CCOCC3)n2)cc1", "note": "[N-methyl[4-({2-morpholin-4-yl-6-[1-(3-morpholin-4-ylpropyl)benzimidazol-6-yl]pyrimidin-4-yl}amino)phenyl]carboxamide]", "IC50": "1000 to 5000"},
      {"smiles": "Cc1nn(C)c2cc(-c3cc(Nc4ccc(-n5nccn5)cc4)nc(N4CCOCC4)n3)cnc12", "note": "[[6-(1,3-dimethylpyrazolo[4,5-b]pyridin-6-yl)-2-morpholin-4-ylpyrimidin-4-yl](4-(1,2,3-triazol-2-yl)phenyl)amine]", "IC50": "< 500"},
      {"smiles": "Clc1ccc(Nc2cc(-c3ccc4cn(CC5CC5)nc4c3)nc(N3CCOCC3)n2)cc1", "note": "[(4-chlorophenyl){6-[2-(cyclopropylmethyl)(2H-indazol-6-yl)]-2-morpholin-4-ylpyrimidin-4-yl}amine]", "IC50": "1000 to 5000"},
      {"smiles": "Cc1nn(C)c2cc(-c3cc(Nc4ccc(-c5c[nH]cn5)cc4)nc(N4CCOCC4)n3)ccc12", "note": "[[6-(1,3-dimethyl(1H-indazol-6-yl))-2-morpholin-4-ylpyrimidin-4-yl](4-imidazol-4-ylphenyl)amine]", "IC50": "1000 to 5000"},
      {"smiles": "CN(C)c1ccc(Nc2cc(-c3ccc4ncn(C)c4c3)nc(N3CCOCC3)n2)cc1", "note": "[dimethyl(4-{[6-(1-methylbenzimidazol-6-yl)-2-morpholin-4-ylpyrimidin-4-yl]amino}phenyl)amine]", "IC50": "1000 to 5000"},
      {"smiles": "Cn1ccc(-c2ccc(Nc3cc(-c4ccc5cnn(C)c5c4)nc(N4CCOCC4)n3)cc2)n1", "note": "[[6-(1-methyl(1H-indazol-6-yl))-2-morpholin-4-ylpyrimidin-4-yl][4-(1-methylpyrazol-3-yl)phenyl]amine]", "IC50": "500 to 1000"},
      {"smiles": "Cc1nn(CCCN2CCCC2)c2cc(-c3cc(Nc4ccc(Cl)cc4)nc(N4CCOCC4)n3)ccc12", "note": "[(4-chlorophenyl){6-[3-methyl-1-(3-pyrrolidinylpropyl)(1H-indazol-6-yl)]-2-morpholin-4-ylpyrimidin-4-yl}amine]", "IC50": "500 to 1000"},
      {"smiles": "Cn1ncc2ccc(-c3cc(Nc4ccc(-c5[nH]ncc5F)cc4)nc(N4CCOCC4)n3)cc21", "note": "[[4-(4-fluoropyrazol-5-yl)phenyl][6-(1-methyl(1H-indazol-6-yl))-2-morpholin-4-ylpyrimidin-4-yl]amine]", "IC50": "1000 to 5000"},
      {"smiles": "Cn1ncc2ccc(-c3cc(Nc4ccc(Cl)cc4)nc(N4CCOCC4)n3)nc21", "note": "[(4-chlorophenyl)[6-(1-methylpyrazolo[4,5-e]pyridin-6-yl)-2-morpholin-4-ylpyrimidin-4-yl]amine]", "IC50": "1000 to 5000"},
      {"smiles": "Cn1nc(Cl)c2ccc(-c3cc(Nc4ccc(Cl)cc4)nc(N4CCOCC4)n3)cc21", "note": "[[6-(3-chloro-1-methyl(1H-indazol-6-yl))-2-morpholin-4-ylpyrimidin-4-yl](4-chlorophenyl)amine]", "IC50": "1000 to 5000"},
      {"smiles": "Cc1nc2ccc(-c3cc(Nc4ccc(Cl)cc4)nc(N4CCOCC4)n3)cc2n1C1COC1", "note": "[(4-chlorophenyl)[6-(2-methyl-1-oxetan-3-ylbenzimidazol-6-yl)-2-morpholin-4-ylpyrimidin-4-yl]amine]", "IC50": "< 500"},
      {"smiles": "Cn1ncc2ccc(-c3cc(Nc4ccc(-c5ccn[nH]5)cc4)nc(N4CCOCC4)n3)cc21", "note": "[[6-(1-methyl(1H-indazol-6-yl))-2-morpholin-4-ylpyrimidin-4-yl](4-pyrazol-5-ylphenyl)amine]", "IC50": "< 500"},
      {"smiles": "Cn1ncc2ccc(-c3cc(Nc4ccccc4)nc(N4CCOCC4)n3)cc21", "note": "[6-(1-methyl-1H-indazol-6-yl)-2-morpholino-N-phenylpyrimidin-4-amine]", "IC50": "1000 to 5000"},
      {"smiles": "Cn1ncc2ccc(-c3cc(Nc4ccc(C#N)cc4)nc(N4CCOCC4)n3)cc21", "note": "[4-{[6-(1-methyl(1H-indazol-6-yl))-2-morpholin-4-ylpyrimidin-4-yl]amino}benzenecarbonitrile]", "IC50": "1000 to 5000"},
      {"smiles": "Cc1nc2ccc(-c3cc(Nc4ccc(Cl)cc4)nc(N4CCOCC4)n3)cc2n1CCCN1CCCC1", "note": "[(4-chlorophenyl){6-[2-methyl-1-(3-pyrrolidinylpropyl)benzimidazol-6-yl]-2-morpholin-4-ylpyrimidin-4-yl}amine]", "IC50": "500 to 1000"},
      {"smiles": "COc1cc(Nc2cc(-c3ccc4cnn(C)c4c3)nc(N3CCOCC3)n2)ccn1", "note": "[(2-methoxy(4-pyridyl))[6-(1-methyl(1H-indazol-6-yl))-2-morpholin-4-ylpyrimidin-4-yl]amine]", "IC50": "500 to 1000"},
      {"smiles": "Cc1c(C)n(C)c2cc(Nc3cc(-c4ccc5c(CCN6CCOCC6)nn(C)c5c4)nc(N4CCOCC4)n3)ccc12", "note": "[{6-[1-methyl-3-(2-morpholin-4-ylethyl)(1H-indazol-6-yl)]-2-morpholin-4-ylpyrimidin-4-yl}(1,2,3-trimethylindol-6-yl)amine]", "IC50": "500 to 1000"},
      {"smiles": "Cc1nn(CCN2CCOCC2)c2cc(-c3cc(Nc4ccc(Cl)cc4)nc(N4CCOCC4)n3)ccc12", "note": "[(4-chlorophenyl){6-[3-methyl-1-(2-morpholin-4-ylethyl)(1H-indazol-6-yl)]-2-morpholin-4-ylpyrimidin-4-yl}amine]", "IC50": "500 to 1000"},
      {"smiles": "CNC(=O)c1ccc(Nc2cc(-c3ccc4nc(C)n(C5CCC5)c4c3)nc(N3CCOCC3)n2)cc1", "note": "[(4-{[6-(1-cyclobutyl-2-methylbenzimidazol-6-yl)-2-morpholin-4-ylpyrimidin-4-yl]amino}phenyl)-N-methylcarboxamide]", "IC50": "< 500"},
      {"smiles": "CN1CCN(CCn2ncc3ccc(-c4cc(Nc5ccc(Cl)cc5)nc(N5CCOCC5)n4)cc32)CC1", "note": "[(4-chlorophenyl)(6-{1-[2-(4-methylpiperazinyl)ethyl](1H-indazol-6-yl)}-2-morpholin-4-ylpyrimidin-4-yl)amine]", "IC50": "500 to 1000"},
      {"smiles": "CNC(=O)c1ccc(Nc2cc(-c3ccc4ncn(C)c4c3)nc(N3CCOCC3)n2)cc1", "note": "[N-methyl(4-{[6-(1-methylbenzimidazol-6-yl)-2-morpholin-4-ylpyrimidin-4-yl]amino}phenyl)carboxamide]", "IC50": "< 500"},
      {"smiles": "Cn1cnc(-c2ccc(Nc3cc(-c4ccc5cnn(C)c5c4)nc(N4CCOCC4)n3)cc2)c1", "note": "[[6-(1-methyl(1H-indazol-6-yl))-2-morpholin-4-ylpyrimidin-4-yl][4-(1-methylimidazol-4-yl)phenyl]amine]", "IC50": "500 to 1000"}
    ]}
  ]
}
